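48-hour exposure; five concentrations; linearly interpolated endpoints. GI50: concentration for 50% inhibition of growth.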 Active and inactive are the calls of the source. Cut-off read from the data, not from the text of the source: active = GI50 up to about 1.1 µM and inactive = higher.
Columns and labels:
Experiment in all cases: NCI-60 cell line screen, 48 h
HCC 2998 = test system: HCC 2998
MDA-MB-435 = test system: MDA-MB-435
SK-MEL-5 = test system: SK-MEL-5
NCI-H522 = test system: NCI-H522
M14 = test system: M14
A549 = test system: A549
SNB-75 = test system: SNB-75
NCI-H460 = test system: NCI-H460
OVCAR-3 = test system: OVCAR-3
HL-60 = test system: HL-60
CAKI-1 = test system: CAKI-1
SF-268 = test system: SF-268
MDA-MB-231 = test system: MDA-MB-231
HOP-62 = test system: HOP-62
HOP-92 = test system: HOP-92
SF-539 = test system: SF-539
HT-29 = test system: HT-29
MDA-N = test system: MDA-N
SK-MEL-2 = test system: SK-MEL-2
UACC-257 = test system: UACC-257

Row | Compound | GI50 (HCC 2998) | GI50 (MDA-MB-435) | GI50 (SK-MEL-5) | GI50 (NCI-H522) | GI50 (M14) | GI50 (A549) | GI50 (SNB-75) | GI50 (NCI-H460) | GI50 (OVCAR-3) | GI50 (HL-60) | GI50 (CAKI-1) | GI50 (SF-268) | GI50 (MDA-MB-231) | GI50 (HOP-62) | GI50 (HOP-92) | GI50 (SF-539) | GI50 (HT-29) | GI50 (MDA-N) | GI50 (SK-MEL-2) | GI50 (UACC-257)
1 | CC1(C)CC(=O)c2c([nH]c(=S)c(C#N)c2-c2ccc(Br)cc2)C1 | 35.8 µM (inactive) | 51.5 µM (inactive) | 46.9 µM (inactive) | 24.2 µM (inactive) | 43 µM (inactive) | 56.2 µM (inactive) | > 100 µM (inactive) | 40.7 µM (inactive) | 30.7 µM (inactive) | 43.9 µM (inactive) | 20 µM (inactive) | 55.2 µM (inactive) | 92.5 µM (inactive) | 41.7 µM (inactive) | 17.3 µM (inactive) | 67.5 µM (inactive) | 40.3 µM (inactive) | 70.5 µM (inactive) | 24.9 µM (inactive) | 52.2 µM (inactive)
2 | O=C1CS(=O)(=O)C(c2cccc(Oc3ccccc3)c2)N1c1cccc(Cl)c1 (stereo unspecified) | 0.16 µM (active) | 13.9 µM (inactive) | 15.7 µM (inactive) | 14.9 µM (inactive) | 26.7 µM (inactive) | 37.3 µM (inactive) | 36.3 µM (inactive) | 18.1 µM (inactive) | 24.5 µM (inactive) | 30 µM (inactive) | 25.7 µM (inactive) | 23.2 µM (inactive) | 29.1 µM (inactive) | 40.2 µM (inactive) | 11.6 µM (inactive) | 18 µM (inactive) | 28.6 µM (inactive) | 16.6 µM (inactive) | 16.3 µM (inactive) | 17.1 µM (inactive)
3 | CC(=O)c1ccc(Oc2c3ccccc3nc3ccccc23)cc1 | 9.48 µM (inactive) | 3.27 µM (inactive) | 14.9 µM (inactive) | 12.2 µM (inactive) | 4.35 µM (inactive) | 9.35 µM (inactive) | 16.1 µM (inactive) | 15.4 µM (inactive) | 7.53 µM (inactive) | 0.207 µM (active) | 4.69 µM (inactive) | 5.18 µM (inactive) | 11.6 µM (inactive) | 14.4 µM (inactive) | 12.4 µM (inactive) | 2.3 µM (inactive) | 2.73 µM (inactive) | 4.27 µM (inactive) | 8.59 µM (inactive) | 5.68 µM (inactive)
4 | CC(C)C1/C(=N/O)CC(c2ccccc2)N(N=O)C1c1ccccc1 (stereo unspecified) | 37.2 µM (inactive) | 26.7 µM (inactive) | 30.2 µM (inactive) | 37 µM (inactive) | 40.7 µM (inactive) | 30.1 µM (inactive) | 38.8 µM (inactive) | 24.7 µM (inactive) | 36.8 µM (inactive) | 32.1 µM (inactive) | 19.2 µM (inactive) | 51.8 µM (inactive) | 81.3 µM (inactive) | 72.6 µM (inactive) | 33.7 µM (inactive) | 57.8 µM (inactive) | 21.2 µM (inactive) | 39.2 µM (inactive) | 24.5 µM (inactive) | 40.7 µM (inactive)
5 | O=C1NC(=S)NC1C(Cc1ccccc1)c1ccco1 (stereo unspecified) | > 100 µM (inactive) | > 100 µM (inactive) | > 100 µM (inactive) | > 100 µM (inactive) | > 100 µM (inactive) | > 100 µM (inactive) | > 100 µM (inactive) | > 100 µM (inactive) | – | 39.6 µM (inactive) | > 100 µM (inactive) | > 100 µM (inactive) | > 100 µM (inactive) | – | > 100 µM (inactive) | > 100 µM (inactive) | > 100 µM (inactive) | > 100 µM (inactive) | – | > 100 µM (inactive)
6 | CCCN(C(=O)c1c(Cl)nnc(Cl)c1C(=O)c1cc(Cl)nnc1Cl)c1cc(Cl)nnc1Cl | 16.9 µM (inactive) | 6.03 µM (inactive) | 9.18 µM (inactive) | 3.24 µM (inactive) | 16.1 µM (inactive) | 32.1 µM (inactive) | 15.3 µM (inactive) | 20.9 µM (inactive) | 10.9 µM (inactive) | 2.48 µM (inactive) | 7.23 µM (inactive) | 4.35 µM (inactive) | 15.7 µM (inactive) | 19 µM (inactive) | 18.4 µM (inactive) | 7.28 µM (inactive) | 16.7 µM (inactive) | 6.7 µM (inactive) | 14.4 µM (inactive) | 14.2 µM (inactive)
7 | O=C(NC1(C(=O)O)CC1c1ccccc1)c1ccccc1 (stereo unspecified) | > 100 µM (inactive) | > 100 µM (inactive) | – | > 100 µM (inactive) | > 100 µM (inactive) | > 100 µM (inactive) | > 100 µM (inactive) | > 100 µM (inactive) | > 100 µM (inactive) | > 100 µM (inactive) | > 100 µM (inactive) | > 100 µM (inactive) | > 100 µM (inactive) | > 100 µM (inactive) | > 100 µM (inactive) | > 100 µM (inactive) | > 100 µM (inactive) | > 100 µM (inactive) | > 100 µM (inactive) | > 100 µM (inactive)
8 | Cc1ccc(/N=C2/C(c3ccccc3)=C(SC3=C(c4ccccc4)/C(=N/c4ccc(C)cc4)c4ccccc43)c3ccccc32)cc1 | > 37.9 µM (inactive) | > 100 µM (inactive) | 19.4 µM (inactive) | 34.6 µM (inactive) | 59.8 µM (inactive) | 32.9 µM (inactive) | 8.63 µM (inactive) | 8.91 µM (inactive) | 27.5 µM (inactive) | 7.87 µM (inactive) | 15.2 µM (inactive) | 6.44 µM (inactive) | 12.6 µM (inactive) | 10 µM (inactive) | 12.1 µM (inactive) | 6.21 µM (inactive) | 24.6 µM (inactive) | 97.7 µM (inactive) | > 39.1 µM (inactive) | 23.4 µM (inactive)
9 | CCOC(=O)COC1=Nc2cc(OC)c(OC)c3nc(Cl)cc(c23)C1=O | 5.5 µM (inactive) | 1.4 µM (inactive) | 1.88 µM (inactive) | 1.6 µM (inactive) | 1.65 µM (inactive) | 6.18 µM (inactive) | 2.51 µM (inactive) | 18.8 µM (inactive) | 1.75 µM (inactive) | 0.252 µM (active) | 1.96 µM (inactive) | 2.37 µM (inactive) | 1.76 µM (inactive) | 3.07 µM (inactive) | 1.7 µM (inactive) | 1.92 µM (inactive) | 2.29 µM (inactive) | 1.18 µM (inactive) | 2 µM (inactive) | 1.75 µM (inactive)
10 | CC1=CC(C)C/C=C/C2C3OC3(C)C(C)C3C(Cc4c[nH]c5ccccc45)NC(=O)C23C(=O)C=CC(=O)C1O (stereo unspecified) | 2.6 µM (inactive) | 17.9 µM (inactive) | 10.7 µM (inactive) | 1.4 µM (inactive) | 3.57 µM (inactive) | 8.3 µM (inactive) | 0.728 µM (active) | 12.8 µM (inactive) | 5.26 µM (inactive) | 1.61 µM (inactive) | 0.885 µM (active) | 15.1 µM (inactive) | 4.67 µM (inactive) | 6.79 µM (inactive) | 0.9 µM (active) | 6.97 µM (inactive) | 1.42 µM (inactive) | 5.53 µM (inactive) | 15.8 µM (inactive) | 6.27 µM (inactive)

Reference: ChEMBL document CHEMBL1201862, “PubChem BioAssay data set” (2004)
